Common to all, as to format: functional
For assay [1], the system named is Aspergillus niger. The experiment in a line: Ratio of MFC to MIC for Aspergillus niger MTCC 8189.
Assay [2] concerns Candida albicans. The experiment in a line: Ratio of MFC to MIC for Candida albicans MTCC 227.
In assay [3] the test system is Escherichia coli. The experiment in a line: Ratio of MBC to MIC for Escherichia coli MTCC 1652.
Assay [4] deals with Bacillus subtilis. The experiment in a line: Ratio of MBC to MIC for Bacillus subtilis MTCC 2063.
Assay [5] has as its system Aspergillus niger. The experiment in a line: Fungicidal activity against Aspergillus niger MTCC 8189.
Assay [6] has as its system Staphylococcus aureus. The assay can be described thus: Ratio of MBC to MIC for Staphylococcus aureus MTCC 2901.
Assay [7] concerns Candida albicans. The experiment in a line: Fungicidal activity against Candida albicans MTCC 227.
Assay [8] relates to Escherichia coli. The assay can be described thus: Bactericidal activity against Escherichia coli MTCC 1652.
Assay [9] concerns Bacillus subtilis. The assay can be described thus: Bactericidal activity against Bacillus subtilis MTCC 2063.
The subject of assay [10] is Aspergillus niger. The assay can be described thus: Antifungal activity against Aspergillus niger MTCC 8189 after 7 days by tube dilution method.
In assay [11] the test system is Staphylococcus aureus. The assay can be described thus: Bactericidal activity against Staphylococcus aureus MTCC 2901.
Assay [12] concerns Candida albicans. The assay can be described thus: Antifungal activity against Candida albicans MTCC 227 after 48 hr by tube dilution method.
The test system of assay [13] is Escherichia coli. The experiment in a line: Antibacterial activity against Escherichia coli MTCC 1652 after 24 hr by tube dilution method.
Assay [14] concerns Bacillus subtilis. The assay can be described thus: Antibacterial activity against Bacillus subtilis MTCC 2063 after 24 hr by tube dilution method.
The subject of assay [15] is Staphylococcus aureus. The assay can be described thus: Antibacterial activity against Staphylococcus aureus MTCC 2901 after 24 hr by tube dilution method.

In brackets after ≈: the same amount, converted by molar mass.

As usually defined, the MFC is the lowest tested concentration that kills the fungus rather than only halting it. Low readings indicate greater fungicidal potency, high ones weaker fungicidal potency. As a reminder, the MBC is the lowest tested concentration that kills the bacteria rather than only halting them. Lower therefore signals greater bactericidal potency.

In the case of `O=CCCC/C=N/c1c(O)cc(S(=O)(=O)O)c2ccccc12`, the Ratio in assay [1], in [2], in assay [3], in assay [4] and in assay [6] was 3 throughout. For the same molecule, the MFC in assay [5] is 30 µM (≈ 9.64 µg/mL); in assay [7], greater than 130 µM. Moreover, the MBC in assay [8], in assay [9] and in [11] was greater than 130 µM throughout. In addition, the “-logMIC” value in [10] was 1.41; in [12], 1.41; in assay [13], 1.41; in assay [14], 1.41; in assay [15], 1.11.
Consider `O=S(=O)(O)c1cc(O)c(/N=C/C=C/c2ccccc2)c2ccccc12`, for which the Ratio in [1], in [2], in [3], in assay [4] and in assay [6] was 3 throughout. The results for the minimal fungicidal concentration (MFC) in assay [5] and in assay [7] were 140 µM (≈ 49.5 µg/mL) and greater than 140 µM, respectively. Moreover, the MBC in [8], in assay [9] and in assay [11] was greater than 140 µM throughout. Further, the “-logMIC” value in assay [10] is listed as 1.45; in [12], 1.45; in assay [13], 1.45; in assay [14], 1.45; in assay [15], 1.15.
With `O=S(=O)(O)c1cc(O)c(/N=C/c2cccc(Cl)c2)c2ccccc12`, the Ratio in assay [1], in [2], in [3], in assay [4] and in [6] was 3 in each case. Moreover, the MFC in assay [5] and in assay [7] was greater than 140 µM in each case. Moreover, the MBC was greater than 140 µM in assay [8], greater than 140 µM in assay [9] and 140 µM (≈ 50.7 µg/mL) in assay [11]. Moreover, the “-logMIC” value in assay [10] is 1.46; in [12] it was 1.46; in assay [13] it was 1.46; in [14], 1.46; in [15], 1.16.
As to `COc1ccccc1/C=N/c1c(O)cc(S(=O)(=O)O)c2ccccc12`, the Ratio in assay [1], in assay [2], in assay [3], in assay [4] and in assay [6] was 3 throughout. In addition, the minimal fungicidal concentration (MFC) in assay [5] and in assay [7] was greater than 130 µM each time. Further, the MBC in assay [8], in [9] and in assay [11] was greater than 130 µM throughout. Further, the “-logMIC” value is 1.46 in [10]; 1.46 in [12]; 1.46 in [13]; 1.46 in assay [14]; 1.16 in assay [15].
Regarding `COc1cccc(/C=N/c2c(O)cc(S(=O)(=O)O)c3ccccc23)c1`, the Ratio in assay [1], in assay [2], in assay [3], in assay [4] and in assay [6] was 3 throughout. For the same molecule, the MFC in assay [5] and in [7] was greater than 120 µM each time. Also, the minimal bactericidal concentration (MBC) in assay [8] is greater than 120 µM; in [9], greater than 120 µM; in [11] it was 120 µM (≈ 42.9 µg/mL). Moreover, the “-logMIC” value is on record as 1.46 in assay [10]; 1.46 in [12]; 1.46 in assay [13]; 1.46 in assay [14]; 1.16 in assay [15].
As to `COc1ccc(/C=N/c2c(O)cc(S(=O)(=O)O)c3ccccc23)cc1OC`, the Ratio in assay [1], in assay [2], in assay [3], in [4] and in [6] was 3 each time. For the same molecule, the MFC in assay [5] and in assay [7] was greater than 150 µM in each case. The MBC in assay [8], in [9] and in [11] was greater than 150 µM each time. Moreover, the “-logMIC” value in assay [10] turned out to be 1.49; in assay [12], 1.49; in assay [13], 1.49; in assay [14], 1.49; in [15], 1.19.
For the molecule `COc1cc(/C=N/c2c(O)cc(S(=O)(=O)O)c3ccccc23)cc(OC)c1OC`, the Ratio in [1], in assay [2], in [3], in [4] and in assay [6] was 3 in each case. In addition, the MFC in [5] and in [7] was greater than 150 µM in each case. Also, the MBC in assay [8], in [9] and in [11] was greater than 150 µM in each case. Further, the “-logMIC” value in assay [10] is recorded as 1.52; in assay [12], 1.52; in assay [13], 1.52; in [14] it was 1.52; in [15], 1.22.
With `O=S(=O)(O)c1cc(O)c(/N=C/c2ccccc2)c2ccccc12`, the Ratio in [1], in [2], in assay [3], in assay [4] and in [6] was 3 in each case. Further, the MFC in [5] and in [7] was greater than 130 µM each time. The MBC in [8], in assay [9] and in assay [11] was greater than 130 µM in each case. The “-logMIC” value in assay [10] is reported as 1.42; in assay [12], 1.42; in assay [13], 1.42; in [14], 1.42; in assay [15] it was 1.12.
Take `O=S(=O)(O)c1cc(O)c(/N=C/c2cccc(O)c2)c2ccccc12`: the Ratio in [1], in assay [2], in assay [3], in [4] and in assay [6] was 3 each time. For the same molecule, the MFC in assay [5] is 130 µM (≈ 44.6 µg/mL); in assay [7], greater than 130 µM. Also, the MBC in [8], in assay [9] and in assay [11] was greater than 130 µM in each case. Besides, the “-logMIC” value in [10] was determined as 1.44; in [12], 1.44; in [13], 1.44; in [14], 1.44; in [15], 1.14.
As for `COc1cccc(/C=N/c2c(O)cc(S(=O)(=O)O)c3ccccc23)c1O`, the Ratio in assay [1], in assay [2], in assay [3], in [4] and in [6] was 3 throughout. Moreover, the minimum fungicidal concentration (MFC) in [5] and in assay [7] was greater than 140 µM each time. Moreover, the minimum bactericidal concentration (MBC) is greater than 140 µM in [8], greater than 140 µM in assay [9] and 140 µM (≈ 52.3 µg/mL) in assay [11]. For the same molecule, the “-logMIC” value in assay [10] is recorded as 1.48; in assay [12] it was 1.48; in assay [13], 1.48; in assay [14], 1.48; in assay [15] it was 1.17.
With `CCOc1cc(/C=N/c2c(O)cc(S(=O)(=O)O)c3ccccc23)ccc1O`, the Ratio in [1], in [2], in assay [3], in assay [4] and in [6] was 3 throughout. Besides, the figures for the MFC in assay [5] and in assay [7] were 30 µM (≈ 11.6 µg/mL) and greater than 130 µM, respectively. Further, the figures for the minimum bactericidal concentration (MBC) in assay [8], in assay [9] and in assay [11] were greater than 130 µM, greater than 130 µM and 130 µM (≈ 50.4 µg/mL), respectively. Further, the “-logMIC” value in assay [10] was 1.49; in assay [12] it was 1.49; in assay [13] it was 1.49; in assay [14], 1.49; in assay [15], 1.19.
In the case of `COc1cc(/C=N/c2c(O)cc(S(=O)(=O)O)c3ccccc23)ccc1O`, the Ratio in assay [1], in assay [2], in [3], in assay [4] and in assay [6] was 3 in each case. Further, the minimal fungicidal concentration (MFC) in [5] was 160 µM (≈ 59.7 µg/mL); in [7], greater than 160 µM. The minimal bactericidal concentration (MBC) in assay [8] was greater than 160 µM; in [9], greater than 160 µM; in assay [11] it was 160 µM (≈ 59.7 µg/mL). Also, the “-logMIC” value turned out to be 1.48 in [10]; 1.48 in assay [12]; 1.48 in assay [13]; 1.48 in assay [14]; 1.17 in [15].
Turning to `O=Cc1ccc(/C=N/c2c(O)cc(S(=O)(=O)O)c3ccccc23)cc1`, the Ratio in [1], in [2], in [3], in [4] and in [6] was 3 throughout. Besides, the MFC in assay [5] is 140 µM (≈ 49.8 µg/mL); in assay [7], greater than 140 µM. In addition, the MBC in assay [8] was greater than 140 µM; in assay [9], greater than 140 µM; in assay [11], 140 µM (≈ 49.8 µg/mL). Moreover, the “-logMIC” value in assay [10] came out at 1.45; in assay [12] it was 1.45; in [13], 1.45; in [14] it was 1.45; in [15], 1.15.
For `OC(Cn1cncn1)(Cn1cncn1)c1ccc(F)cc1F` [FLUCONAZOLE], the MFC in assay [5] was determined as 40 µM (≈ 12.3 µg/mL). The “-logMIC” value in assay [10] and in assay [12] was 2.64 in each case.
For the molecule `CCn1cc(C(=O)O)c(=O)c2cc(F)c(N3CCNCC3)cc21` [NORFLOXACIN], the MBC in assay [8], in assay [9] and in assay [11] was 19 µM (≈ 6.07 µg/mL) in each case. In addition, the “-logMIC” value in assay [13], in assay [14] and in assay [15] was 2.61 throughout.

For the origin of these results see ChEMBL document CHEMBL3045260, “Synthesis, anti-microbial evaluation, and QSAR studies of 4-amino-3-hydroxy-naphthalene-1-sulfonic acid derivatives” (2012).
